Experimental data taken from patent publication US20030232801A1, “Identification of compounds for the treatment or prevention of proliferative diseases” (priority 2001, published 2003).

Experiments:
[1] = system: 6D-2 cells (MCF-7 human breast cancer cells stably transfected with luciferase linked to the 5′ and 3′UTRs of human HER2); experiment: Cellular toxicity, MTS cell viability, 6D-2 cells; format: cell-based; conditions: for IC50: MTS viability
Protocol: (§1) 6D-2 cells (MCF-7 human breast cancer cells stably transfected with luciferase linked to the 5′ and 3′UTRs of human HER2) were added to 96-well plates at 7500 cells per well in 200 μL medium and incubated for 24 hours at 100% humidity, 5% CO2, and 37° C. Compounds were diluted from DMSO stock solutions into medium and were added at various concentrations. The 6D-2 cells were incubated for 16 hours at which time the volume of medium in each well was reduced to 100 μL using a plate washer. 20 μL of MTS cell viability reagent (Promega, Madison, Wis.) was then added to each well, and the plates were incubated for 1-4 hours. A plate containing wells with 100 μL medium plus MTS reagent was prepared to determine the background reading. The plates were read on the Wallac 2 plate reader (PerkinElmer Life Science, Boston, Mass.) at 490 nm. Percent viability was calculated as (O.D. of compound treated cells−background O.D.)/(O.D. of DMSO treated cells−background O.D.)×100. MT-4 cells (adult human T-cell leukemia cells) were plated at 1.5×10^5 cells per well in 200 μL medium and incubated for at least one hour before the addition of compounds. The cells were incubated for 5 days at 100% humidity, 5% CO2, and 37° C. Cell viability was determined as described for 6D-2 cells.
(§2) Compounds of the invention containing a pyrrolidine substituent were tested for toxicity to cancerous and non-cancerous cells. 6D-2 cellular activity is representative of potency as an antitumor agent. MT-4 cellular activity is representative of general toxicity. A high IC50 for MT-4 cells and a low IC50 for 6D-2 cells is indicative of a compound of potential therapeutic use in treating or preventing proliferative diseases, such as cancer.

[2] = system: MT-4 cells (adult human T-cell leukemia cells); experiment: Cellular toxicity, MTS cell viability, MT-4 cells; format: cell-based; conditions: for IC50: 5 day, MTS viability
Protocol: as §1, §2

[3] = Cellular toxicity, MTS cell viability, 6D-2 cells; format: cell-based, human; conditions: Homo sapiens, MCF7, MTS viability
Protocol: as §1, §2

Q: What does the source list for `O=C1C(Nc2cccc(F)c2)=C(N2CCCC2)C(=O)c2ccccc21` [Example 16, 2-(N-3-fluoroanilino)-3-pyrrolidino-1,4-naphthoquinone]?
A: IC50 [1]: 1.36 µM; MT-4 5 day, percent @.10 μM [2]: 68% @.10 μM

Q: With `Nc1ccc2c(c1)C(=O)C(N1CCCC1)=C(Nc1ccc(F)c(F)c1)C2=O` [Example 31, 6-Amino-2-(N-3,4-difluoroanilino)-3-pyrrolidino-1,4-naphthoquinone] as the compound, how does the IC50 [1] read?
A: 1.5 µM

Q: What about the IC50 [2] of the same compound?
A: 0.3 µM

Q: For `COC[C@@H]1CCCN1C1=C(Nc2ccc(F)cc2)C(=O)c2ccccc2C1=O` [Example 19, 2-(N-4-fluoroanilino)-3-(2-(S)-methoxymethylpyrrolidino)-1,4-naphthoquinone], which IC50 [1] is on record?
A: 8.95 µM

Q: What about the “MT-4 5 day, percent @.10 μM” value [2] of the same compound?
A: 97% @.10 μM

Q: For `CC(C)NC(=S)Nc1ccc(NC2=C(N3CCCC3)C(=O)c3ccccc3C2=O)cc1` [Example 11, N^1-4-((3-pyrrolidino-1,4-naphthalenedion-2-yl)amino)phenyl-N^2-(1-methylethyl)thiourea], which IC50 [1] is on record?
A: 0.33 µM

Q: And the IC50 [2]?
A: 6.15 µM

Q: With `O=C1C(Nc2ccccc2)=C(N2CCCC2)C(=O)c2ccccc21` [Example 14, 2-(N-anilino)-3-pyrrolidino-1,4-naphthoquinone] as the compound, how does the IC50 [1] read?
A: 0.76 µM

Q: What about the IC50 [2] of the same compound?
A: 2.1 µM

Q: With `COC(=O)Nc1ccc2c(c1)C(=O)C(N1CCCC1)=C(Nc1ccc(F)c(F)c1)C2=O` [Example 32, 6-[(methoxycarbonyl)amino]-2-(N-3,4-difluoroanilino)-3-pyrrolidino-1,4-naphthoquinone] as the compound, how does the IC50 [1] read?
A: 4 µM

Q: And the IC50 [2]?
A: 7 µM

Q: With `O=C(Nc1ccccc1)Nc1ccc(NC2=C(N3CCCC3)C(=O)c3ccccc3C2=O)cc1` [Example 25, N^1-4-((3-pyrrolidino-1,4-naphthalenedion-2-yl)amino)phenyl-N^2-phenylurea] as the compound, how does the IC50 [1] read?
A: 1.06 µM

Q: And the IC50 [2]?
A: 2.22 µM

Q: For `COCCNC(=O)Nc1ccc(NC2=C(N3CCCC3)C(=O)c3ccccc3C2=O)cc1` [Example 27, N′-4-((3-pyrrolidino-1,4-naphthalenedion-2-yl)amino)phenyl-N^2-(2-methoxyethyl)urea], which IC50 [1] is on record?
A: 0.21 µM

Q: And the IC50 [2]?
A: 0.56 µM

Q: With `COc1ccc(NC2=C(N3CCCC3)C(=O)c3ccccc3C2=O)cn1` [Example 8, 2-(N-2-methoxy-5-aminopyridine)-3-pyrrolidino-1,4-naphthoquinone] as the compound, how does the IC50 [1] read?
A: 0.12 µM

Q: What about the IC50 [2] of the same compound?
A: 1.11 µM

Q: Which IC50 [1] does the source give for `CC1CCCN1C1=C(Nc2ccc(F)cc2)C(=O)c2ccccc2C1=O` (stereo not shown) [Example 18, 2-(N-4-fluoroanilino)-3-(2-methylpyrrolidino)-1,4-naphthoquinone] here?
A: 2.63 µM

Q: And the IC50 [2]?
A: 5.24 µM

Q: With `Nc1ccc(NC2=C(N3CCCC3)C(=O)c3ccccc3C2=O)cc1` [Example 7, 2-(N-4-aminoanilino)-3-pyrrolidino-1,4-naphthoquinone] as the compound, how does the IC50 [1] read?
A: 0.07 µM

Q: And the IC50 [2]?
A: 0.16 µM

Q: For `CNC(=S)Nc1ccc(NC2=C(N3CCCC3)C(=O)c3ccccc3C2=O)cc1` [Example 12, N^1-4-((3-pyrrolidino-1,4-naphthalenedion-2-yl)amino)phenyl-N^2-methylthiourea], which IC50 [1] is on record?
A: 0.1 µM

Q: What about the IC50 [2] of the same compound?
A: 8.7 µM

Q: Which results are given for `O=C1C(Nc2ccc(F)c(F)c2)=C(N2CCCC2)C(=O)c2ccccc21` [Example 29, 2-(N-3,4-difluoroanilino)-3-pyrrolidino-1,4-naphthoquinone]?
A: IC50 [1]: 2.34 µM; MT-4 5 day, percent @ 10 μM [2]: 40% @ 10 μM

Q: For `COc1ccc(NC2=C(N3CCCC3)C(=O)c3ccccc3C2=O)cc1` [Example 9, 2-(N-4-methoxyanilino)-3-pyrrolidino-1,4-naphthoquinone], which IC50 [1] is on record?
A: 0.1 µM

Q: And the IC50 [2]?
A: 0.52 µM

Q: Which IC50 [1] does the source give for `CC(C)NC(=O)Nc1ccc(NC2=C(N3CCCC3)C(=O)c3ccccc3C2=O)cc1` [Example 24, N′-4-((3-pyrrolidino-1,4-naphthalenedion-2-yl)amino)phenyl-N^2-(1-methylethyl)urea] here?
A: 0.18 µM

Q: What about the IC50 [2] of the same compound?
A: 1.68 µM

Q: For `COC(=O)Nc1cccc(NC2=C(N3CCCC3)C(=O)c3ccccc3C2=O)c1` [Example 23, N-3-((3-pyrrolidino-1,4-naphthalenedion-2-yl)amino)phenyl-O-methylcarbamate], which IC50 [1] is on record?
A: 0.87 µM

Q: And the IC50 [2]?
A: 10.2 µM

Q: For `CC(C)OC(=O)Nc1ccc(NC2=C(N3CCCC3)C(=O)c3ccccc3C2=O)cc1` [Example 21, N-4-((3-pyrrolidino-1,4-naphthalenedion-2-yl)amino)phenyl-O-(1-methylethyl)carbamate], which IC50 [1] is on record?
A: 1.38 µM

Q: What about the IC50 [2] of the same compound?
A: 2 µM

Q: For `O=C1C(Nc2ccc(F)cc2)=C(N2CCCC2)C(=O)c2ccccc21` [Example 30, 2-(N-4-Fluoroanilino)-3-pyrrolidino-1,4-naphthoquinone], which IC50 [1] is on record?
A: 0.52 µM

Q: And the IC50 [2]?
A: 4.47 µM

Q: For `COC(=O)Nc1ccc(NC2=C(N3CCCC3)C(=O)c3ccccc3C2=O)cc1` [Example 22, N-4-((3-pyrrolidino-1,4-naphthalenedion-2-yl)amino)phenyl-O-methylcarbamate], which IC50 [1] is on record?
A: 0.14 µM

Q: And the IC50 [2]?
A: 0.47 µM

Q: Which results are given for `CNC(=O)Nc1ccc(NC2=C(N3CCCC3)C(=O)c3ccccc3C2=O)cc1` [Example 26]?
A: IC50 [1]: 0.11 µM; IC50 [2]: 0.75 µM

Q: Which results are given for `Cc1cc(=O)oc2cc(NC3=C(N4CCCC4)C(=O)c4ccccc4C3=O)ccc12` [Example 10, 7-((3-pyrrolidino-1,4-naphthalenedion-2-yl)amino)-4-methylcoumarin]?
A: IC50 [3]: 6.78 µM; IC50 ([2]; Homo sapiens, MT4, 120 h): 1.18 µM

Q: For `Nc1ccc(C(=O)N(C2=C(N3CCCC3)C(=O)c3ccccc3C2=O)c2ccccc2)cc1` [Example 15, 2-(N-4-aminobenzoylanilino)-3-pyrrolidino-1,4-naphthoquinone], which “6D-2 24 hr, percent @.10 μM” value [1] is on record?
A: 60% @.10 μM

Q: What about the IC50 ([2]; Homo sapiens, MT4, 120 h) of the same compound?
A: 1 µM

Q: With `NCC(=O)c1cccc(NC2=C(N3CCCC3)C(=O)c3ccccc3C2=O)c1` [Example 13, 2-(N-3-aminoacetylanilino)-3-pyrrolidino-1,4-naphthoquinone] as the compound, how does the “6D-2 24 hr, percent @.10 μM” value [1] read?
A: 70% @.10 μM

Q: What about the “MT-4 5 day, percent @.10 μM” value [2] of the same compound?
A: 80% @.10 μM

Q: With `CN(C)C1=C(Nc2cccc(F)c2)C(=O)c2ccccc2C1=O` [Example 17, 2-(N-3-fluoroanilino)-3-dimethylamino-1,4-naphthoquinone] as the compound, how does the IC50 [1] read?
A: 10 µM

Q: What about the “MT-4 5 day, percent @.10 μM” value [2] of the same compound?
A: 100% @.10 μM

Q: For `O=C(Nc1ccc(NC2=C(N3CCCC3)C(=O)c3ccccc3C2=O)cc1)c1ccco1` [Example 20, 2-(4-(2-furanoylamino)phenylamino)-3-pyrrolidino-1,4-naphthoquinone], which IC50 [3] is on record?
A: 0.06 µM

Q: And the IC50 ([2]; Homo sapiens, MT4, 120 h)?
A: 0.11 µM

Q: With `O=C1C(Nc2ccc(F)cc2)=C(N2CCCC2)C(=O)c2cnccc21` [Example 4, 6-(N′-4-fluoroanilino)-7-pyrrolidino-5,8-isoquinolinedione] as the compound, how does the IC50 [1] read?
A: 1.48 µM

Q: And the IC50 [2]?
A: 2.51 µM

Q: For `NC(=O)Nc1ccc(NC2=C(N3CCCC3)C(=O)c3ccccc3C2=O)cc1` [Example 28, 2-(N-(4-carbamidoanilino))-3-pyrrolidino-1,4-naphthoquinone], which IC50 [1] is on record?
A: 0.31 µM

Q: And the “MT-4 5 day, percent @ 10 μM” value [2]?
A: 56% @ 10 μM

Q: For `O=C1C(Nc2ccc(F)cc2)=C(N2CCCC2)C(=O)c2ncccc21` [Example 5, 6-(N-4-fluoroanilino)-7-pyrrolidino-5,8-quinolinedione], which IC50 [1] is on record?
A: 0.77 µM

Q: And the IC50 [2]?
A: 6.69 µM

Q: What does the source list for `CC(=O)Nc1ccc(NC2=C(N3CCCC3)C(=O)c3cnccc3C2=O)cc1` [Example 3A, 6-(N′-4-aminoacetanilide)-7-pyrrolidino-5,8-isoquinolinedione]?
A: IC50 [1]: 0.37 µM; IC50 [2]: 5.16 µM

Q: For `CC(=O)Nc1ccc(NC2=C(N3CCCC3)C(=O)c3ccncc3C2=O)cc1` [Example 3B, 7-(N′-4-aminoacetanilide)-6-pyrrolidino-5,8-isoquinolinedione], which IC50 [1] is on record?
A: 4.08 µM

Q: What about the IC50 [2] of the same compound?
A: 6.79 µM

Q: With `CC(C)(C)OC(=O)Nc1ccc(NC2=C(N3CCCC3)C(=O)c3ccccc3C2=O)cc1` [Example 6, N-4-((3-pyrrolidino-1,4-naphthalenedion-2-yl)amino)phenyl-O-1.1-dimethylethylcarbamate] as the compound, how does the IC50 [1] read?
A: 0.57 µM

Q: And the IC50 [2]?
A: 2.78 µM

Q: With `O=C1C(Nc2ccc(F)c(F)c2)=C(N2CCCC2)C(=O)c2ccc([N+](=O)[O-])cc21` [Example 33, 7-Nitro-2-(N-3,4-difluoroanilino)-3-pyrrolidino-1,4-naphthoquinone] as the compound, how does the IC50 [1] read?
A: 1 µM

Q: And the IC50 [2]?
A: 0.7 µM
